Data published in ChEMBL document CHEMBL5126669, “Discovery of 5,7-Dihydro-6H-pyrrolo[2,3-d]pyrimidin-6-ones as Highly Selective CDK2 Inhibitors” (ACS Med Chem Lett, 2022).

What was measured:
Cytochrome P450 2B6 = target: T1, Cytochrome P450 2B6 (Homo sapiens, UniProt P20813); assay: Inhibition of CYP2B6 (unknown origin) at >25 uM; format: ADME
T1 sequence (P20813 whole entry): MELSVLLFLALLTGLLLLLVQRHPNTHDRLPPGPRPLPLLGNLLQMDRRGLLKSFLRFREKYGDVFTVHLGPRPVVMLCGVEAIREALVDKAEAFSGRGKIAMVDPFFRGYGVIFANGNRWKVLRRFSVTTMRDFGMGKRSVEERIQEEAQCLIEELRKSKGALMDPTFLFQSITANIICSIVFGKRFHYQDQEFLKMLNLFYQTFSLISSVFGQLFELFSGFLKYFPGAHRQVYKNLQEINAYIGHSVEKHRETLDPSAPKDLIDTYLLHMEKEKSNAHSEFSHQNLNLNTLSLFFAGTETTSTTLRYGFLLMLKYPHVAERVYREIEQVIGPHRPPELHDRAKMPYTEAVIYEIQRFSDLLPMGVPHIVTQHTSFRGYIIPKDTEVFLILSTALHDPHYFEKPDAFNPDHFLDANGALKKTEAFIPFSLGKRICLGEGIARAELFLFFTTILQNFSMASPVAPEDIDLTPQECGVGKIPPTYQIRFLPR

Cytochrome P450 2C8 = target: T2, Cytochrome P450 2C8 (Homo sapiens, UniProt P10632); assay: Inhibition of CYP2C8 (unknown origin) at >25 uM; format: ADME
T2 sequence (P10632 whole entry): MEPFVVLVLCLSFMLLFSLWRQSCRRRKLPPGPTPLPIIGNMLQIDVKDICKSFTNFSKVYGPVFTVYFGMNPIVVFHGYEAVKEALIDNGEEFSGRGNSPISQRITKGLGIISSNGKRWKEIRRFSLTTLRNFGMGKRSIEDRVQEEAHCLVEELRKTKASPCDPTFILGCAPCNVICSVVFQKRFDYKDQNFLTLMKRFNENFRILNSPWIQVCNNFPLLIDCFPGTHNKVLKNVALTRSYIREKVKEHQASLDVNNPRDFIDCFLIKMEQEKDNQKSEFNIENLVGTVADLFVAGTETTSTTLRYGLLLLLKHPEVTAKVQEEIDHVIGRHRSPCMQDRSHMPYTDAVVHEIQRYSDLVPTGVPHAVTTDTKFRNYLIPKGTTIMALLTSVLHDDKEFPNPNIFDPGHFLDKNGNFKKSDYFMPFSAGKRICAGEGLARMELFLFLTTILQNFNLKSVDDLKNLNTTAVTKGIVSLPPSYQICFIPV

[1] = Hepatic blood flow in Sprague-Dawley rat at 0.5 mg/kg, iv measured upto 24 hrs by LC-MS/MS analysis; format: ADME, organism-based; conditions: in vivo
[2] = Cmax in Cynomolgus monkey at 2 mg/kg, po measured upto 24 hrs by LC-MS/MS analysis; format: ADME, organism-based, Macaca fascicularis; parameters: dose 2 mg/kg, time < 24 hrs, route po; conditions: in vivo
[3] = Volume of distribution at steady state in Sprague-Dawley rat at 0.5 mg/kg, iv measured upto 24 hrs by LC-MS/MS analysis; format: ADME, organism-based; conditions: in vivo
Homo sapiens [4] = species on record: Homo sapiens; assay: Selectivity ratio of IC50 for inhibition of CDK9 (unknown origin) to IC50 for inhibition recombinant human N-terminal GST-tagged full-length CDK2/Flag-tagged cyclinE1 expressed in baculovirus expression system
[5] = Cmax in Sprague-Dawley rat at 3 mg/kg, po measured upto 24 hrs by LC-MS/MS analysis; format: ADME, organism-based; parameters: dose 3 mg/kg, time < 24 hrs, route po; conditions: in vivo
[6] = Hepatic blood flow in Cynomolgus monkey at 0.3 mg/kg, iv measured upto 24 hrs by LC-MS/MS analysis; format: ADME, organism-based, Macaca fascicularis; conditions: in vivo
[7] = target: Cyclin-dependent kinase 2 (Homo sapiens, UniProt P24941); assay: Inhibition of CDK2 in human COV318 cells incubated for overnight in presence of human whole blood by HTRF assay; format: cell-based
[8] = Solubility of compound; format: physicochemical
Homo sapiens [9] = species on record: Homo sapiens; assay: Selectivity ratio of IC50 for inhibition of CDK1 (unknown origin) to IC50 for inhibition recombinant human N-terminal GST-tagged full-length CDK2/Flag-tagged cyclinE1 expressed in baculovirus expression system
Homo sapiens [10] = species on record: Homo sapiens; assay: Selectivity ratio of IC50 for inhibition of CDK4/cyclin D1 (unknown origin) to IC50 for inhibition recombinant human N-terminal GST-tagged full-length CDK2/Flag-tagged cyclinE1 expressed in baculovirus expression system
Homo sapiens [11] = species on record: Homo sapiens; assay: Selectivity ratio of IC50 for inhibition of CDK6/cyclin D1 (unknown origin) to IC50 for inhibition recombinant human N-terminal GST-tagged full-length CDK2/Flag-tagged cyclinE1 expressed in baculovirus expression system
Homo sapiens [12] = species on record: Homo sapiens; assay: Selectivity ratio of IC50 for inhibition of CDK4 (unknown origin) to IC50 for inhibition recombinant human N-terminal GST-tagged full-length CDK2/Flag-tagged cyclinE1 expressed in baculovirus expression system
[13] = target: Cyclin-dependent kinase 2/cyclin E1 (Homo sapiens, UniProt P24941); assay: Inhibition of recombinant human N-terminal GST-tagged full-length CDK2/Flag-tagged cyclinE1 expressed in baculovirus expression system using eIF4E-binding protein-1 peptide as substrate incubated for 1 hr in presence of ATP by HTRF assay
Homo sapiens [14] = species on record: Homo sapiens; assay: Selectivity ratio of IC50 for inhibition of CDK7 (unknown origin) to IC50 for inhibition recombinant human N-terminal GST-tagged full-length CDK2/Flag-tagged cyclinE1 expressed in baculovirus expression system
Cytochrome P450 2C19 = Cytochrome P450 2C19 (Homo sapiens, UniProt P33261); assay: Inhibition of CYP2C19 (unknown origin) at >25 uM; format: ADME
Sequence of Cytochrome P450 2C19 (P33261 whole entry): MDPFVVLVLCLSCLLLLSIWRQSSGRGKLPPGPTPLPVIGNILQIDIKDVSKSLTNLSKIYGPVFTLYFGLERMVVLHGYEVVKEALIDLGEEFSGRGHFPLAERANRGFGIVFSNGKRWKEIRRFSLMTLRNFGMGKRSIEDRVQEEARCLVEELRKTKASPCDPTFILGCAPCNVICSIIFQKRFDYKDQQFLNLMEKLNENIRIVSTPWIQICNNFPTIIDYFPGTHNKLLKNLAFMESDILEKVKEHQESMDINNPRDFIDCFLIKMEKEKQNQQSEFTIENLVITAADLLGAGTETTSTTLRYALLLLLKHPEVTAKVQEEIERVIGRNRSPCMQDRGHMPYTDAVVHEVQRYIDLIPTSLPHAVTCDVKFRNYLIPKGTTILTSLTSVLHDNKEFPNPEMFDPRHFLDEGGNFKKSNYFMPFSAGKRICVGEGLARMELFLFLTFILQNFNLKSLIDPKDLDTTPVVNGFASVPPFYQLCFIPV

[15] = Volume of distribution at steady state in Cynomolgus monkey at 0.3 mg/kg, iv measured upto 24 hrs by LC-MS/MS analysis; format: ADME, organism-based, Macaca fascicularis; conditions: in vivo, read-out: Vdss
[16] = AUC in Cynomolgus monkey at 2 mg/kg, po measured upto 24 hrs by LC-MS/MS analysis; format: ADME, organism-based, Macaca fascicularis; parameters: dose 2 mg/kg, time < 24 hrs, route po; conditions: in vivo
Cytochrome P450 1A2 = target: T3, Cytochrome P450 1A2 (Homo sapiens, UniProt P05177); assay: Inhibition of CYP1A2 (unknown origin) at >25 uM; format: ADME
T3 sequence (P05177 whole entry): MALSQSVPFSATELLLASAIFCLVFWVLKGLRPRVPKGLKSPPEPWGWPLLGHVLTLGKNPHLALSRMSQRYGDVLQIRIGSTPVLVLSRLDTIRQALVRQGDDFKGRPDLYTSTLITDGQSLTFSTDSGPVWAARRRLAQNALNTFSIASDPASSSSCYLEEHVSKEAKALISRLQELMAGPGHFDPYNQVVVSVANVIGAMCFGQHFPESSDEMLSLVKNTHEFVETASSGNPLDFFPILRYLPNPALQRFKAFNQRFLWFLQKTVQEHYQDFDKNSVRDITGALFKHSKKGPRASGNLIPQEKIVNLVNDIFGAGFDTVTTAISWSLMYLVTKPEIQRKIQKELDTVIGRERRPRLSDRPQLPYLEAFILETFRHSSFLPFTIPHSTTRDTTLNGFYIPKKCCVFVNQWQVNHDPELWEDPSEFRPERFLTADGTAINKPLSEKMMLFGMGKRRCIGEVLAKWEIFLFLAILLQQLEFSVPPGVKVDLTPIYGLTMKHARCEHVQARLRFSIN

hERG (KCNH2) = hERG (KCNH2) (Homo sapiens, UniProt Q12809); assay: Displacement of [3H]Dofetilide from human ERG at 10 uM incubated for 24 hrs by filter binding assay relative to control; format: toxicity; conditions: probe [3H]dofetilide
Sequence of hERG (KCNH2) (Q12809 whole entry): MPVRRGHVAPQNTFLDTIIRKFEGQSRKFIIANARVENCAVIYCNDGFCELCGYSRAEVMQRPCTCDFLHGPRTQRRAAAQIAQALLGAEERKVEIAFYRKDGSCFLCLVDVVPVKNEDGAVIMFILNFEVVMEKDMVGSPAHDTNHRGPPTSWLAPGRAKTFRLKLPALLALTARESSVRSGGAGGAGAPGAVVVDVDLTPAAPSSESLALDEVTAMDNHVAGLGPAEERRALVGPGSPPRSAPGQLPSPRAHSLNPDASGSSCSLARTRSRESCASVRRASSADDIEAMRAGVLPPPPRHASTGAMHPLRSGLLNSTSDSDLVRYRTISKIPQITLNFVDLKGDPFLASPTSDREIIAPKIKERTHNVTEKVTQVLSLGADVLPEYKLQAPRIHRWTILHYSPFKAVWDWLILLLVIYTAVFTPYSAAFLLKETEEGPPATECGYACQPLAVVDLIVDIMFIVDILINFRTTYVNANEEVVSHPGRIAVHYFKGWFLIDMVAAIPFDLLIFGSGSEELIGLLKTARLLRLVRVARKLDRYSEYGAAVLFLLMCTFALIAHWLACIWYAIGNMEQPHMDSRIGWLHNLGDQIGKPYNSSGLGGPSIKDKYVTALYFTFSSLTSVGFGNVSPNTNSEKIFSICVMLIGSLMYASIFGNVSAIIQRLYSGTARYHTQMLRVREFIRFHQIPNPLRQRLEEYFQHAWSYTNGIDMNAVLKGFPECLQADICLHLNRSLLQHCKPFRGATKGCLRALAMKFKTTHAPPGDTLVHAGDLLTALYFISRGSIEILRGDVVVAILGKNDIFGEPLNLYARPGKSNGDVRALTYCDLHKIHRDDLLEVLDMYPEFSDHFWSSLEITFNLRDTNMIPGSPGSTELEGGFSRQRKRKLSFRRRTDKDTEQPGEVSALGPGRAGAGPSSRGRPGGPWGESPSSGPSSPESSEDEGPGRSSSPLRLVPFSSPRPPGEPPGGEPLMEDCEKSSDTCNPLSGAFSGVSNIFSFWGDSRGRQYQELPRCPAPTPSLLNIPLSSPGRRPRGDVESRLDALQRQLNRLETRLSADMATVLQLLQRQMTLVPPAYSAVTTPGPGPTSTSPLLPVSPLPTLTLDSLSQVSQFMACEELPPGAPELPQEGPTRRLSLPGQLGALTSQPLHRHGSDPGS

Cytochrome P450 2D6 = Cytochrome P450 2D6 (Homo sapiens, UniProt P10635); assay: Inhibition of CYP2D6 (unknown origin) at >25 uM; format: ADME
Sequence of Cytochrome P450 2D6 (P10635 whole entry): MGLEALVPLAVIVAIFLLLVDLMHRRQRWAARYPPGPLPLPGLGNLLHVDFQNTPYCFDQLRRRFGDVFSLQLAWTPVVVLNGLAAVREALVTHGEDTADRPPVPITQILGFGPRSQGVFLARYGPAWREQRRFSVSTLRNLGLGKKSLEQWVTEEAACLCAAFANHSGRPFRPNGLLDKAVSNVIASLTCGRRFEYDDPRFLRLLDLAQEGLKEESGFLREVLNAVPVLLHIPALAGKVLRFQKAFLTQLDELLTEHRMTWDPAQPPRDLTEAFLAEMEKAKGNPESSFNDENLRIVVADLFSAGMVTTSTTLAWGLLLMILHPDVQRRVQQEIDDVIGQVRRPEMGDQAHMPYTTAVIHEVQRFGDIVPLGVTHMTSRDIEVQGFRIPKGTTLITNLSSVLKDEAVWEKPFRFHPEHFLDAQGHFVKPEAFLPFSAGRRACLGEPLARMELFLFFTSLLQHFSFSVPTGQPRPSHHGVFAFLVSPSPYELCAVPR

[17] = AUC in Sprague-Dawley rat at 3 mg/kg, po measured upto 24 hrs by LC-MS/MS analysis; format: ADME, organism-based; parameters: dose 3 mg/kg, time < 24 hrs, route po; conditions: in vivo
Cytochrome P450 3A4 = Cytochrome P450 3A4 (Homo sapiens, UniProt P08684); assay: Inhibition of CYP3A4 (unknown origin) at >25 uM; format: ADME
Sequence of Cytochrome P450 3A4 (P08684 whole entry): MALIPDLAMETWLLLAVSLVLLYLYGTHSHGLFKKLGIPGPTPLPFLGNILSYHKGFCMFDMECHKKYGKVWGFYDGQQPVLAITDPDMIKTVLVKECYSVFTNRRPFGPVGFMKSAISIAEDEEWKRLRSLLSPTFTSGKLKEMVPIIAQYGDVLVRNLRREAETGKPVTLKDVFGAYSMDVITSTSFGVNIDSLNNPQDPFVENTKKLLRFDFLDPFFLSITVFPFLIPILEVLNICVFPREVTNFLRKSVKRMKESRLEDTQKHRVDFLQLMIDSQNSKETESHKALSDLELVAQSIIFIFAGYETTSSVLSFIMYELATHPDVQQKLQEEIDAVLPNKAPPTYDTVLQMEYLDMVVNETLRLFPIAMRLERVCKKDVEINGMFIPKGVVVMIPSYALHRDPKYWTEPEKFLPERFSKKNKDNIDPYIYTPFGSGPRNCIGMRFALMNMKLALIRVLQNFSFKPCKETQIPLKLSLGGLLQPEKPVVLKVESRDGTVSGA

Homo sapiens [18] = species on record: Homo sapiens; assay: Selectivity ratio of IC50 for inhibition of CDK6 (unknown origin) to IC50 for inhibition recombinant human N-terminal GST-tagged full-length CDK2/Flag-tagged cyclinE1 expressed in baculovirus expression system
[19] = Oral bioavailability in Sprague-Dawley rat at 3 mg/kg measured upto 24 hrs by LC-MS/MS analysis; format: ADME, organism-based; conditions: in vivo
Cytochrome P450 2C9 = Cytochrome P450 2C9 (Homo sapiens, UniProt P11712); assay: Inhibition of CYP2C9 (unknown origin) at >25 uM; format: ADME
Sequence of Cytochrome P450 2C9 (P11712 whole entry): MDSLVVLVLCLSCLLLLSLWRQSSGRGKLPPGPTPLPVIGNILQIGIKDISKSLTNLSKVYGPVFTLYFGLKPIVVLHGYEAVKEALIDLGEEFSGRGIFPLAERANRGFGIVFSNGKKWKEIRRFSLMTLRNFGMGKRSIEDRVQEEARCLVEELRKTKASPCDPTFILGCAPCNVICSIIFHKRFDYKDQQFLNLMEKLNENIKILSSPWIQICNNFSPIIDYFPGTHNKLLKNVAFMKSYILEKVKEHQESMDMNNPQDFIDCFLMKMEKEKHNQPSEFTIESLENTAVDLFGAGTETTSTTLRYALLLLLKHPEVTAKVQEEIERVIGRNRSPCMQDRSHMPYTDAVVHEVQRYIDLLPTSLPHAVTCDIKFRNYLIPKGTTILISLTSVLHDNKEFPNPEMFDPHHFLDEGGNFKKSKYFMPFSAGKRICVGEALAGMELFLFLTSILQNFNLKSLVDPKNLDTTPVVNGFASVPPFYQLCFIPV

[20] = Oral bioavailability in Cynomolgus monkey at 2 mg/kg measured upto 24 hrs by LC-MS/MS analysis; format: ADME, organism-based, Macaca fascicularis; conditions: in vivo
[21] = Intrinsic clearance in human liver microsomes at 1 uM measured upto 30 mins by LC/MS analysis; format: ADME, Microsome; conditions: read-out: CLH (converted)
[22] = Metabolic stability in Cynomolgus monkey liver microsomes assessed as compound oxidation at 5 uM measured upto 30 mins by HPLC/MS analysis; format: ADME, Macaca fascicularis, Microsome; conditions: 0.5 h
[23] = Metabolic stability in Cynomolgus monkey liver microsomes assessed as remaining parent compound at 5 uM measured upto 30 mins by HPLC/MS analysis; format: ADME, Macaca fascicularis, Microsome; conditions: 0.5 h
[24] = Metabolic stability in Sprague-Dawley rat liver microsomes assessed as remaining parent compound at 5 uM measured upto 30 mins by HPLC/MS analysis; format: ADME, Microsome; conditions: 0.5 h
[25] = Metabolic stability in human liver microsomes assessed as compound demethylation at 5 uM measured upto 30 mins by HPLC/MS analysis; format: ADME, Microsome; conditions: 0.5 h
[26] = Metabolic stability in human liver microsomes assessed as remaining parent compound at 5 uM measured upto 30 mins by HPLC/MS analysis; format: ADME, Microsome; conditions: liver microsomes, read-out: Stability
[27] = Metabolic stability in Cynomolgus monkey liver microsomes assessed as compound demethylation at 5 uM measured upto 30 mins by HPLC/MS analysis; format: ADME, Macaca fascicularis, Microsome; conditions: 0.5 h
[28] = Metabolic stability in Sprague-Dawley rat liver microsomes assessed as compound oxidation at 5 uM measured upto 30 mins by HPLC/MS analysis; format: ADME, Microsome; conditions: 0.5 h
[29] = Metabolic stability in human liver microsomes assessed as compound oxidation at 5 uM measured upto 30 mins by HPLC/MS analysis; format: ADME, Microsome; conditions: liver microsomes, read-out: Drug metabolism
[30] = Metabolic stability in Sprague-Dawley rat liver microsomes assessed as compound demethylation at 5 uM measured upto 30 mins by HPLC/MS analysis; format: ADME, Microsome; conditions: 0.5 h

inhibition (INH) (Cytochrome P450 2B6)	inhibition (INH) (Cytochrome P450 2C8)	QH [1] [%]	Cmax [5] [nM]	IC50 [7] [nM]	solubility [8] [µg/mL]	inhibition (INH) (Cytochrome P450 2C19)	inhibition (INH) (Cytochrome P450 1A2)	inhibition (INH) (Cytochrome P450 2D6)	AUC at 24 h [17] [µM·h]	inhibition (INH) (Cytochrome P450 3A4)	bioavailability [19] [%]	inhibition (INH) (Cytochrome P450 2C9)	predicted hepatic clearance at 1 µM [21] [mL/min/kg]	Compound	inhibition at 24 h, 10 µM (hERG (KCNH2)) [%]	further results
Active	Active	96	562	316	> 400	Active	Active	Active	1.13	Active	59	Active	16.7	Cn1cc(S(=O)(=O)N2CCC(Nc3ncc4c(n3)N([C@@H]3CCC[C@@H](O)C3)C(=O)C43CC3)CC2)cn1	7.2	Cmax [2]: 56 nM; Vd ([3]; Sprague-Dawley, read-out: Vdss): 2 L/kg; Ratio IC50 (Homo sapiens [4]): 2500; QH [6]: 48%; Ratio IC50 (Homo sapiens [9]): 660; Ratio IC50 (Homo sapiens [10]): 110; Ratio IC50 (Homo sapiens [11]): 35; Ratio IC50 (Homo sapiens [12]): 110; IC50 [13]: 2 nM; Ratio IC50 (Homo sapiens [14]): 1100; Vd [15]: 1.2 L/kg; AUC at 24 h [16]: 0.388 µM·h; Ratio IC50 (Homo sapiens [18]): 35; bioavailability [20]: 12%
Active	Active	> 100	752	746	> 400	Active	Active	Active	0.666	Active	92	Active	< 8.33	[2H]C([2H])([2H])NS(=O)(=O)c1ccc(Nc2ncc3c(n2)N([C@@H]2CCC[C@@]2(C)O)C(=O)C32CC2)cc1 (relative stereo)	16	Drug metabolism [22]: 12%; Stability [23]: 20%; Vdss ([3]; iv, 0.5 mg/kg, 24 h): 3.2 L/kg; Stability [24]: 4.4%; Drug metabolism [25]: 10%; remaining at 0.5 h, 5 µM [26]: 85%; Drug metabolism [27]: 71%; Drug metabolism [28]: 54%; metabolised at 0.5 h, 5 µM [29]: 5%; Drug metabolism [30]: 23%
